{
  "source": "a melting point compilation (Tetko et al.)",
  "data": [
    {"units": {"melting point": "°C"}, "values": [
      {"smiles": "Nc1cccnc1OCc1ccccc1", "melting point": "51 to 53"},
      {"smiles": "Cc1ccc2c(C)cc(=O)[nH]c2c1", "melting point": "209 to 211"},
      {"smiles": "C#CCNC(=O)CCl", "melting point": "63 to 67"},
      {"smiles": "Cc1c(-c2csc(N)n2)sc2ccccc12", "melting point": "170 to 172"},
      {"smiles": "O=C(O)C(Oc1ccccc1)c1ccccc1", "note": "(centres undefined)", "melting point": "103 to 105"},
      {"smiles": "O=C(c1nc2ccccc2s1)C(F)(F)F", "melting point": "83 to 85"},
      {"smiles": "N#Cc1ccc(Oc2cccc(Cl)c2Cl)nc1", "melting point": "143 to 145"},
      {"smiles": "CC(C)c1c(C(=O)O)nnn1-c1ccc(F)cc1F", "melting point": "158 to 160"},
      {"smiles": "Nc1ccc(N2CCOCC2)cc1C(=O)O", "melting point": "235 to 237"},
      {"smiles": "NNc1cnccn1", "melting point": "109 to 113"},
      {"smiles": "NC(=NO)c1ccc([N+](=O)[O-])cc1", "melting point": "187 to 189"},
      {"smiles": "N#Cc1ccc(S(=O)(=O)Cl)cn1", "melting point": "67 to 69"},
      {"smiles": "CC(C)(C)c1ccc(S(=O)(=O)CCN)cc1", "melting point": "46 to 48"},
      {"smiles": "O=C(O)Cc1ccc(NC(=O)c2cccc(Br)c2)cc1", "melting point": "246 to 248"},
      {"smiles": "O=C(O)CC(O)(c1ncc[nH]1)C(F)(F)F", "note": "(centres undefined)", "melting point": "208 to 210"},
      {"smiles": "CSc1nc2ncccc2o1", "melting point": "62 to 64"},
      {"smiles": "O=C1CCc2cc(Br)ccc2N1", "melting point": "169 to 171"},
      {"smiles": "O=C1CCOc2cc(Br)ccc21", "melting point": "89 to 91"},
      {"smiles": "O=C(Cn1cccn1)NC1CCCCC1", "melting point": "116 to 118"},
      {"smiles": "O=C(Nc1cc(Cl)ccc1Cl)C1CCCCN1", "note": "(centres undefined)", "melting point": "127 to 129"},
      {"smiles": "COC(=O)C(=O)CC(=O)c1ccc(N2CCOCC2)cc1", "melting point": "164 to 166"},
      {"smiles": "Cc1cc(C)c(N)c(Cl)n1", "melting point": "56 to 58"},
      {"smiles": "O=S(CCCl)c1ccccc1", "note": "(centres undefined)", "melting point": "34 to 36"},
      {"smiles": "COc1cc(OC)c(C(=O)NO)cc1OC", "melting point": "187 to 189"},
      {"smiles": "O=C(O)c1cc(S(=O)(=O)Cl)c(Cl)cc1Cl", "melting point": "158 to 162"},
      {"smiles": "Clc1ncncc1I", "melting point": "54 to 56"},
      {"smiles": "O=C(O)CNC(=O)C1CCOCC1", "melting point": "166 to 168"},
      {"smiles": "O=C(O)c1ccc(F)c(S(=O)(=O)NC2CC2)c1", "melting point": "226 to 228"},
      {"smiles": "O=C(O)Cc1csc(-c2ccc(Cl)cc2)n1", "melting point": "255 to 257"},
      {"smiles": "NCCCNc1ccc(C(F)(F)F)cn1", "melting point": "48 to 50"},
      {"smiles": "CC(=O)c1c(C)cc(C)c(CCl)c1C", "melting point": "74 to 76"},
      {"smiles": "O=C(O)c1cnn(-c2ccccn2)c1", "melting point": "186 to 188"},
      {"smiles": "O=C1CN(/C=C/c2ccccc2)C(=O)N1", "melting point": "224 to 226"},
      {"smiles": "O=S(=O)(Cl)c1ccc2nc(Cl)sc2c1", "melting point": "98 to 100"},
      {"smiles": "Cc1ccc(Cl)c2ccc(N)nc12", "melting point": "104 to 106"},
      {"smiles": "O=C(O)/C(=C\\c1ccccc1)c1cccs1", "melting point": "169 to 171"},
      {"smiles": "CC(C)(C(O)c1ccc(Br)cc1)[N+](=O)[O-]", "note": "(centres undefined)", "melting point": "106 to 108"},
      {"smiles": "CC(C(=O)O)N1CCSCC1", "note": "(centres undefined)", "melting point": "199 to 201"},
      {"smiles": "CN(C)S(=O)(=O)c1cc(C(=O)O)n(C)c1", "melting point": "159 to 161"},
      {"smiles": "Cc1ccc(-n2nc(C(=O)O)c3c2CCCC3)cc1F", "melting point": "208 to 210"},
      {"smiles": "Cc1ccsc1C(=O)c1ccc(Cl)cc1F", "melting point": "39 to 41"},
      {"smiles": "Fc1cccc(NC2CCOCC2)c1", "melting point": "70 to 72"},
      {"smiles": "CCC(N)=S", "melting point": "40 to 42"},
      {"smiles": "Cn1cc(C#N)c(N)n1", "melting point": "119 to 121"},
      {"smiles": "COC(=O)c1sc2c(c1N)CCC(C(C)(C)C)C2", "note": "(centres undefined)", "melting point": "153 to 155"},
      {"smiles": "NNC(=O)COc1ccc(OCc2ccccc2)cc1", "melting point": "142 to 144"},
      {"smiles": "O=C(NS(=O)(=O)c1cccs1)c1ccccc1", "melting point": "92 to 94"},
      {"smiles": "CCOCCNC(N)=O", "melting point": "60 to 62"},
      {"smiles": "COc1cc(/C(C)=N\\O)ccc1OCc1ccccc1", "melting point": "117 to 119"},
      {"smiles": "Cc1ccc(CNC(=O)C2CCNCC2)cc1", "melting point": "157 to 159"},
      {"smiles": "CC(C)(C)n1ccnc1SCC(=O)O", "melting point": "174 to 176"},
      {"smiles": "NS(=O)(=O)c1cc2c(cc1Br)CCCC(=O)N2", "melting point": "249 to 251"},
      {"smiles": "Sc1nnc(N2CCCCC2)s1", "melting point": "165 to 167"},
      {"smiles": "CCOc1cc(C#N)cc(Br)c1O", "melting point": "140 to 142"},
      {"smiles": "CCCOc1ccc(CNC(=O)CCl)cc1", "melting point": "109 to 111"},
      {"smiles": "Cc1ccc(C)c(NC(N)=S)c1", "melting point": "140 to 142"},
      {"smiles": "C=CCNC(=O)NC(=O)CCl", "melting point": "113 to 115"},
      {"smiles": "Cc1nnc(S)n1C1CCCCC1", "melting point": "164 to 166"},
      {"smiles": "Clc1noc(-c2cccs2)n1", "melting point": "37 to 39"}
    ]}
  ]
}
